Experimental data reported in ChEMBL document CHEMBL4304764, “Identification of a RIP1 Kinase Inhibitor Clinical Candidate (GSK3145095) for the Treatment of Pancreatic Cancer” (ACS Med Chem Lett, 2019).

Legend:
[1] = AUC (0 to infinity) in rat at 2 mg/kg, po; format: ADME, organism-based; design: dose 2 mg/kg, route oral, time infinity; conditions: in vivo
[2] = Chromatographic hydrophobicity index, log D of the compound at pH 7.4 by RP-HPLC analysis; format: physicochemical; conditions: buffer
[3] = Metabolic stability in monkey hepatocytes in presence of NADPH; format: ADME, cell-based, Macaca mulatta, Hepatocyte; conditions: rhesus monkey
[4] = Half life in rat at 1 mg/kg, iv; format: ADME, organism-based; conditions: in vivo
[5] = Cmax in rat at […], po; format: ADME, organism-based; design: dose 2.1 mg/kg, route oral; conditions: in vivo
[6] = Clearance in monkey at […], iv relative to liver blood flow; format: ADME, organism-based, Macaca mulatta; conditions: rhesus monkey, in vivo
[7] = AUC in monkey at […], po; format: ADME, organism-based, Macaca mulatta; conditions: rhesus monkey, in vivo
[8] = Cmax in dog at 2 mg/kg, po; format: ADME, organism-based, Canis lupus familiaris; design: dose 2 mg/kg, route oral; conditions: in vivo
[9] = Volume of distribution at steady state in dog at 1.1 mg/kg, iv; format: ADME, organism-based, Canis lupus familiaris; conditions: in vivo, read-out: Vdss
in vivo [10] = conditions: rat, po
[11] = AUC in rat at […], po; format: ADME, organism-based; conditions: in vivo
[12] = Metabolic stability in rat hepatocytes in presence of NADPH; format: ADME, cell-based, Hepatocyte
in vivo [13] = conditions: dog, po, 2 mg/kg
[14] = Half life in monkey at […], iv; format: ADME, organism-based, Macaca mulatta; conditions: rhesus monkey, in vivo
[15] = Clearance in rat at 1 mg/kg, iv relative to liver blood flow; format: ADME, organism-based; conditions: in vivo
[16] = AUC in dog at 2 mg/kg, po; format: ADME, organism-based, Canis lupus familiaris; conditions: in vivo
[17] = Volume of distribution at steady state in rat at 1 mg/kg, iv; format: ADME, organism-based; conditions: in vivo, read-out: Vdss
[18] = Clearance in rat at 1 mg/kg, iv; format: ADME, organism-based; conditions: in vivo
[19] = Metabolic stability in human hepatocytes in presence of NADPH; format: ADME, cell-based, Hepatocyte
[20] = Clearance in dog at 1.1 mg/kg, iv; format: ADME, organism-based, Canis lupus familiaris; conditions: in vivo
[21] = Clearance in dog at 1.1 mg/kg, iv relative to liver blood flow; format: ADME, organism-based, Canis lupus familiaris; conditions: in vivo

SMILES: O=C(N[C@H]1COc2ccccc2NC1=O)c1n[nH]c(Cc2ccccc2)n1
- AUC(0-inf) [1]: 2500 ng·h/mL
- logD [2]: 3

SMILES: CN1C(=O)[C@@H](NC(=O)c2n[nH]c(Cc3ccccc3)n2)CCc2ccccc21
- AUC(0-inf) [1]: 310 ng·h/mL
- logD [2]: 3.8

SMILES: CN1C(=O)[C@@H](NC(=O)c2n[nH]c(Cc3ccccc3)n2)CCc2cc(F)cc(F)c21
- AUC(0-inf) [1]: 160 ng·h/mL
- logD [2]: 4.3

SMILES: O=C(N[C@H]1CCc2ccccc2NC1=O)c1n[nH]c(Cc2ccccc2)n1
- logD [2]: 3.1

SMILES: O=C(N[C@H]1CCc2cc(F)cc(F)c2NC1=O)c1n[nH]c(Cc2ccccc2)n1
- Stability [3]: Stable
- half-life [4]: 132 min
- Cmax [5]: 320 ng/mL
- CL [6]: 15%
- AUC [7]: 4400 ng·h/mL
- AUC(0-inf) [1]: 1100 ng·h/mL
- Cmax [8]: 910 ng/mL
- Vd [9]: 1.1 L/kg
- Tmax (in vivo [10]): 49.8 min
- AUC [11]: 1100 ng·h/mL
- Stability [12]: Stable
- Tmax (in vivo [13]): 45 min
- t1/2 [14]: 252 min
- CL [15]: 35%
- AUC [16]: 2500 ng·h/mL
- Vd [17]: 1.8 L/kg
- clearance [18]: 27 mL/min/kg
- Stability [19]: Stable
- clearance [20]: 9.8 mL/min/kg
- logD [2]: 3.4
- CL [21]: 18%

SMILES: O=C(N[C@H]1COc2ccccc2NC1=O)c1cc(Cc2ccccc2)on1
- logD [2]: 5.1
